From US10894787B2, “Modulators of the GPR119 receptor and the treatment of disorders related thereto” (Arena Pharmaceuticals, Inc., priority 2010, dated 2021) come the findings set out here.

SMILES strings stand for the structures.

This series in a line: Dynamic moisture-sorption (DMS) analysis. The note with it: at about 90% RH and 25° C. The series is classed as physicochemical. As for the experimental part:
A dynamic moisture-sorption (DMS) study was conducted using a dynamic moisture-sorption analyzer, VTI Corporation, SGA-100. Samples were prepared for DMS analysis by placing 5 mg to 20 mg of a sample in a tared sample holder. The sample was placed on the hang-down wire of the VTI balance. A drying step was run, typically at 40° C. and 0.5-1% RH for 1 h. The isotherm temperature is 25° C. Defined % RH holds typically ranged from 10% RH to 90% RH, with intervals of 10 to 20% RH. A % weight change smaller than 0.010% over 10 min, or up to 2 h, whichever occurred first, was required before continuing to the next % RH hold. The water content of the sample equilibrated as described above was determined at each % RH hold.

As to `CN(C)C(=O)c1ccc(Nc2ncnc(N3CCC(c4nc(C(C)(C)F)no4)CC3)c2F)c(F)c1` [Compound 1 (Anhydrous Form), 3-fluoro-4-(5-fluoro-6-(4-(3-(2-fluoropropan-2-yl)-1,2,4-oxadiazol-5-yl)piperidin-1-yl)pyrimidin-4-ylamino)-N,N-dimethylbenzamide], the DMS weight gain entry is recorded as “FIG. 8: Less than about 0.35% weight gain at about 90% RH”.
